For one data set, the target named is T1, Flt-1 VEGF-receptor tyrosine kinase (Homo sapiens, UniProt P17948).
T1 construct: 10 ng of the kinase domain of Flt-1
T1 sequence (P17948 827-1158 limits assumed): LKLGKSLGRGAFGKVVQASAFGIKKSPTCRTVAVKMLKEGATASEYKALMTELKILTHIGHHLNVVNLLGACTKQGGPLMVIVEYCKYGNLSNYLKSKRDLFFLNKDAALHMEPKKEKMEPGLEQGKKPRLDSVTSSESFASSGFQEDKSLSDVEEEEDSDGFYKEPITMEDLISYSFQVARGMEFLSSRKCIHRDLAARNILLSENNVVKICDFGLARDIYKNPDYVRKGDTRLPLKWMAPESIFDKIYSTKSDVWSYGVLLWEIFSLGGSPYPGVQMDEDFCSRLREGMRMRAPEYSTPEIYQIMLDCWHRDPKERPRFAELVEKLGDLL
Nature of the data set: Test for activity against Flt-1 VEGF-receptor tyrosine kinase. In kind it is biochemical. The note with it: kinase domain of Flt-1, poly(Glu,Tyr) 4:1, 8 μM [33P]-ATP, 10 minutes at room temperature. How it is done:
Test for activity against VEGF-receptor tyrosine kinase. The test is conducted using Flt-1 VEGF-receptor tyrosine kinase. […] The reaction is then terminated by the addition of 10 μl 0.25 M ethylenediaminetetraacetate (EDTA) pH 7. Using a multichannel dispenser (LAB SYSTEMS, USA), an aliquot of 20 μl is applied to a PVDF (=polyvinyl difluoride) Immobilon P membrane (Millipore, USA), through a Millipore microtiter filter manifold and connected to a vacuum. Following complete elimination of the liquid, the membrane is washed 4 times successively in a bath containing 0.5% phosphoric acid (H3PO4) and once with ethanol, incubated for 10 minutes each time while shaking, then mounted in a Hewlett Packard TopCount Manifold and the radioactivity measured after the addition of 10 μl Microscint® (β-scintillation counter liquid).
The test is conducted using Flt-1 VEGF-receptor tyrosine kinase, as described hereinabove.
What is called IC50 is the concentration needed to halve the response being measured. A high value points to a need for much substance. In the case of `Cc1ccc(NC(=O)c2ccccc2NCc2ccncc2)cc1` [Example 5, 2-[(4-Pyridyl)methyl]amino-N-(4-methylphenyl)benzamide], half-maximal inhibition (IC50) was put at 260 nM.

`O=C(Nc1ccc(Cl)c(C(F)(F)F)c1)c1ccccc1NCc1ccncc1` [Example 7, 2-[(4-Pyridyl)methyl]amino-N-[4-chloro-3-(trifluoromethyl)phenyl]benzamide] had an IC50 of 560 nM.

Test system in a further data set: not given
Experiment: not given
Details: not given
Broadly, the melting point is the temperature of the solid-liquid transition. Compound `O=C(Nc1ccccc1)c1ccccc1NCc1ccncc1` [Example 3, 2-[(4-Pyridyl)methyl]amino-N-phenylbenzamide] registered a melting point of 160 to 161 °C.

`CC(C)(C)c1ccc(NC(=O)c2ccccc2NCc2ccncc2)cc1` [Example 27, 2-[(4-Pyridyl)methyl]amino-N-[4-(1,1-dimethylethyl)phenyl]benzamide] registered a melting point of 168 to 170 °C.

In turn, `O=C(Nc1ccc(Cl)cc1)c1cc(Cl)ccc1NCc1ccncc1` [Example 59, 5-chloro-2-[(4-pyridyl)methyl]amino-N-(4-chlorophenyl)benzamide] displayed a melting point of 206 to 207 °C.

Take `O=C(Nc1cccc(C(F)(F)F)c1)c1ccccc1NCc1ccnc2ccccc12` [Example 35, 2-[(4-Quinolinyl)methyl]amino-N-[3-(trifluoromethyl)phenyl]benzamide]: the melting point lay within 191 to 193 °C.

As for `O=C(Nc1cc(Cl)cc(C(F)(F)F)c1)c1ccccc1NCc1ccncc1` [Example 8, 2-[(4-Pyridyl)methyl]amino-N-[3-chloro-5-(trifluoromethyl)phenyl]benzamide], the melting point was in the range of 190 to 194 °C.

For `O=C(Nc1ccc(Cl)cc1)c1ccc(Cl)cc1NCc1ccncc1` [Example 55, 4-chloro-2-[(4-pyridyl)methyl]amino-N-(4-chlorophenyl)benzamide], the melting point came out at 186 °C.

Compound `O=C(Nc1cc(F)cc(C(F)(F)F)c1)c1ccccc1NCc1ccncc1` [Example 10, 2-[(4-Pyridyl)methyl]amino-N-[3-fluoro-5-(trifluoromethyl)phenyl]benzamide] registered a melting point of 196 to 197 °C.

The compound `N#Cc1cccc(NC(=O)c2ccccc2NCc2ccncc2)c1` [Example 16, 2-[(4-Pyridyl)methyl]amino-N-(3-cyanophenyl)benzamide] had a melting point of 157 to 160 °C.

Consider `COc1cc(NC(=O)c2ccccc2NCc2ccncc2)cc2ccccc12` [Example 64, 2-[(4-pyridyl)methyl]amino-N-(4-methoxy-2-naphthyl)benzamide], for which the melting point lay within 152 to 154 °C.

Take `O=C(Nc1cccc(Cl)c1)c1ccccc1NCc1ccncc1` [Example 28, 2-[(4-Pyridyl)methyl]amino-N-(3-chlorophenyl)benzamide]: the melting point lay in the range of 131 to 133 °C.

The compound `O=C(Nc1ccc2cccc(O)c2c1)c1ccccc1NCc1ccncc1` [Example 54, 2-[(4-pyridyl)methyl]amino-N-(8-hydroxy-2-naphthyl)benzamide] yielded a melting point of 235 °C.

In turn, `CC(C)(C)c1cccc(NC(=O)c2ccccc2NCc2ccncc2)c1` [Example 15, 2-[(4-Pyridyl)methyl]amino-N-[3-(1,1-dimethylethyl)phenyl]benzamide] came in with a melting point of 144 to 147 °C.

On to `Cc1cccc(NCc2ccncc2)c1C(=O)Nc1ccc(Cl)cc1` [Example 47, 6-methyl-2-[(4-pyridyl)methyl]amino-N-(4-chlorophenyl)benzamide], for which the melting point is 190 °C.

As to `CC(C)OC(=O)c1ccc(NC(=O)c2ccccc2NCc2ccncc2)cc1` [Example 66, 2-[(4-pyridyl)methyl]amino-N-[4-(isopropoxycarbonyl)phenyl]benzamide], the melting point turned out to be 70 °C.

As for `NC(=O)Nc1cccc(NC(=O)c2ccccc2NCc2ccncc2)c1` [Example 19, 2-[(4-Pyridyl)methyl]amino-N-[3-[(aminocarbonyl)amino]phenyl]benzamide], the melting point was in the range of 200 to 202 °C.

As to `Cc1ccc(NC(=O)c2ccccc2NCc2ccncc2)cc1Cl` [Example 69, 2-[(4-pyridyl)methyl]amino-N-(3-chloro-4-methylphenyl)benzamide], the melting point worked out at 143 °C.

For the compound `O=C(Nc1cccc(C(F)(F)F)c1)c1ccccc1NCCc1cccnc1` [Example 42, 2-[2-(3-Pyridyl)ethyl]amino-N-[3-(trifluoromethyl)phenyl]benzamide], the melting point fell in the range of 102 to 103 °C.

In turn, `NC(=O)c1cccc(NC(=O)c2ccccc2NCc2ccncc2)c1` [Example 32, 2-[(4-Pyridyl)methyl]amino-N-[3-(aminocarbonyl)phenyl]benzamide] displayed a melting point of 195 to 203 °C.

For the compound `O=C(Nc1ccc(Cl)cc1)c1c(Cl)cccc1NCc1ccncc1` [Example 48, 6-chloro-2-[(4-pyridyl)methyl]amino-N-(4-chlorophenyl)benzamide], the melting point lay within 183 to 185 °C.

Regarding `O=C(Nc1cc2ccccc2cc1Br)c1ccccc1NCc1ccncc1` [Example 65, 2-[(4-pyridyl)methyl]amino-N-(3-bromo-2-naphthyl)benzamide], the melting point fell in the range of 130 to 132 °C.

Regarding `O=C(Nc1ccc(F)c(C(F)(F)F)c1)c1ccccc1NCc1ccncc1` [Example 9, 2-[(4-Pyridyl)methyl]amino-N-[4-fluoro-3-(trifluoromethyl)phenyl]benzamide], the melting point lay in the range of 183 to 185 °C.

Take `CC(C)NC(=O)c1ccc(NC(=O)c2ccccc2NCc2ccncc2)cc1` [Example 68, 2-[(4-pyridyl)methyl]amino-N-[4-(isopropylcarbamoyl)phenyl]benzamide]: the melting point is 79 °C.

With `CN(C(=O)c1ccccc1NCc1ccncc1)c1cccc(C(F)(F)F)c1` [Example 24, 2-[(4-Pyridyl)methyl]amino-N-methyl-N-[3-(trifluoromethyl)phenyl]benzamide], the melting point fell in the range of 127 to 128 °C.

`Cc1cccc(NC(=O)c2ccccc2NCc2ccncc2)c1` [Example 30, 2-[(4-Pyridyl)methyl]amino-N-(3-methylphenyl)benzamide]: the melting point was 139 to 140 °C.

On to `Cc1ccccc1NC(=O)c1ccccc1NCc1ccncc1` [Example 70, 2-[(4-pyridyl)methyl]amino-N-(2-methylphenyl)benzamide], for which the melting point stood at 143 °C.

`COc1ccc(NCc2ccncc2)c(C(=O)Nc2cccc(C(F)(F)F)c2)c1` [Example 21, 5-Methoxy-2-[(4-pyridyl)methyl]amino-N-[3-(trifluoromethyl)phenyl]benzamide] had a melting point of 175 to 178 °C.

`Cc1ccc(NCc2ccncc2)c(C(=O)Nc2ccc(Cl)cc2)c1` [Example 56, 5-methyl-2-[(4-pyridyl)methyl]amino-N-(4-chlorophenyl)benzamide] came in with a melting point of 127 °C.

Regarding `O=C(Nc1cccc(C(F)(F)F)c1)c1cc(F)c(F)cc1NCc1ccncc1` [Example 23, 4,5-Difluoro-2-[(4-pyridyl)methyl]amino-N-[3-(trifluoromethyl)phenyl]benzamide], the melting point lay in the range of 175 to 178 °C.

`O=C(Nc1cccc(C(F)(F)F)c1)c1ccccc1NCc1cccnc1` [Example 34, 2-[(3-Pyridyl)methyl]amino-N-[3-(trifluoromethyl)phenyl]benzamide] registered a melting point of 140 to 142 °C.

On to `O=C(Nc1ccc(Cl)c(C(F)(F)F)c1)c1ccccc1NCc1ccncc1` [Example 7, 2-[(4-Pyridyl)methyl]amino-N-[4-chloro-3-(trifluoromethyl)phenyl]benzamide], for which the melting point was in the range of 162 to 172 °C.

Turning to `COc1cc(NC(=O)c2ccccc2NCc2ccncc2)cc(C(F)(F)F)c1` [Example 13, 2-[(4-Pyridyl)methyl]amino-N-[3-methoxy-5-(trifluoromethyl)phenyl]benzamide], the melting point was in the range of 134 to 136 °C.

On to `Cc1ccc(NC(=O)c2c(C)cccc2NCc2ccncc2)cc1` [Example 33, 2-[(4-Pyridyl)methyl]amino-N-(4-methylphenyl)-6-methylbenzamide], for which the melting point lay in the range of 162 to 163 °C.

`CN(C)c1cccc(NC(=O)c2ccccc2NCc2ccncc2)c1` [Example 20, 2-[(4-Pyridyl)methyl]amino-N-[3-(dimethylamino)phenyl]benzamide]: the melting point fell in the range of 152 to 154 °C.

As for `CC(=O)Nc1cccc(NC(=O)c2ccccc2NCc2ccncc2)c1` [Example 18, 2-[(4-Pyridyl)methyl]amino-N-(3-acetylaminophenyl)benzamide], the melting point was in the range of 157 to 158 °C.

Regarding `O=C(Nc1cccc(Br)c1)c1ccccc1NCc1ccncc1` [Example 29, 2-[(4-Pyridyl)methyl]amino-N-(3-bromophenyl)benzamide], the melting point lay in the range of 156 to 159 °C.

As for `O=C(Nc1cccc(C(F)(F)F)c1)c1ccccc1NCc1cccc2ncccc12` [Example 36, 2-[(5-Quinolinyl)methyl]amino-N-[3-(trifluoromethyl)phenyl]benzamide], the melting point was 176 to 178 °C.

`O=C(Nc1ccc(Cl)cc1)c1ccccc1NCc1ccnc2ccccc12` [Example 39, 2-[(4-Quinolinyl)methyl]amino-N-(4chlorophenyl)benzamide]: the melting point lay in the range of 178 to 209 °C.

Compound `O=C(Nc1ccc(Cl)cc1)c1ccccc1NCc1ncc[nH]1` [Example 40, 2-[(2-Imidazolyl)methyl]amino-N-(4chlorophenyl)benzamide] returned a melting point of 181 to 184 °C.

These data come from patent publication US7002022B2, “N-Aryl (thio) anthranilic acid amide derivatives, their preparation and their use as VEGF” (Novartis AG, priority 1998, dated 2006).
